The text below walks through data of patent US20070049638A1, “Polymorphic forms of 3-amino-1-propanesulfonic acid” (Neurochem (International) Limited, priority 2005, published 2007).

The series is described as follows: relative stability of the polymorphic forms (crystallisation and slurry interconversion experiments). Conditions: stated as 'believed to be'. Type of series: physicochemical. On the procedure: Thus in general, without wishing to be bound by theory, slower processes will favor the production of Form B. For example, slow addition of solvent, slow cooling rate and/or mixing will tend to favor the production of Form B, whereas fast solvent addition, fast cooling and/or minimal mixing time will favor production of Form A.
A mixture of 3-amino-1-propanesulfonic acid form A (0.7654 g) and form B (0.7880 g) were added to ethanol (5 mL) and water (1.25 mL) in a flask. The slurry was placed in a water bath at 5° C. and stirred for four hours. Solids were collected by vacuum filtration to afford form B.

Turning to `NCCCS(=O)(=O)O` [Form A, 3-amino-1-propanesulfonic acid], the “kinetic preference of the polymorphic form” value (generated from fast timescale experiments) is “kinetically favored form”.
Consider `NCCCS(=O)(=O)O` [Form B, 3-amino-1-propanesulfonic acid], for which the “thermodynamic stability of the polymorphic form” value (between about 5 and about 60° C.) is “more thermodynamically stable form”.
